Reference: ChEMBL document CHEMBL5131547, “Novel Halomethylketone Azadipeptides for Treating COVID-19” (ACS Med Chem Lett, 2022)

Biological target: Replicase polyprotein 1ab (Severe acute respiratory syndrome coronavirus 2, UniProt P0DTD1)
Experiment: Inhibition of recombinant SARS-CoV-2 3CLpro expressed in Escherichia coli BL21 DE3 using FAM-KTSAVLQSGFRKMEK-TAMRA fluorogenic peptide as substrate preincubated for 1 hr followed by substrate addition measured after 30 mins by FRET assay

Row | SMILES | IC50
1 | CC(C)C[C@H](NC(=O)OCc1ccccc1)C(=O)NN(CC1CCCNC1=O)C(=O)CCl (some centres not stated) | 5 nM
2 | CC(C)C[C@H](NC(=O)c1cc2ccccc2[nH]1)C(=O)NN(C[C@H]1CCNC1=O)C(=O)CCl | 3 nM
